Reference: patent publication US20180369186A1, “METHOD FOR MODULATING AUTOPHAGY AND APPLICATIONS THEREOF” (JAWAHARLAL NEHRU CENTRE FOR ADVANCED SCIENTIFIC RESEARCH, priority 2015, published 2018)

Columns and labels:
[1] = tested on: TH+ dopaminergic neurons in SNpc; experiment: MPTP mouse model: TH+ dopaminergic neurons in SNpc (stereology, densitometry, volume); format: in vivo, mice
Description: As described by Vernice Jackson-Lewis & Serge Przedborski (2007), 23.4 mg/kg MPTP.HCl (equivalent to 20 mg/kg free base) in 10 ml/kg body wt. of saline is administered intraperitoneally (i.p.) for 4 times at 2 h intervals.
All mice are sacrificed 9 days post MPTP administration and brains are processed for immunohistochemistry.
Mice are anaesthetized using Halothane BP (Piramal Healthcare) inhalation and perfused intracardially with normal saline followed by 4% PFA in 0.1 M phosphate buffer, pH 7.4. Brains are removed quickly and post-fixed with 4% PFA for 24 h-48 h at 4° C. Following cryoprotection in 15% and 30% sucrose, 40 μm thick coronal cryosections of midbrain are collected serially on gelatinized slides. Immunoperoxidase labelling protocol as identical to that reported. Briefly, endogenous peroxidase is quenched using H2O2 (0.1%) in methanol (70%), followed by blocking of non-specific staining by buffered solution (3%) of bovine serum albumin for 4 h at room temperature. Sections are incubated with TH primary antibody (1:500) followed by biotin conjugated secondary antibody (1:200 dilution, Vector Laboratories). Tertiary labelling is performed with avidin-biotin complex solution (1:100, Vector Laboratories). Staining is visualized using 3′-3′-diaminobenzidine (0.05%) as a chromogen in a solution of 0.1M acetate imidazole buffer (pH 7.4) and H2O2 (0.1%). Negative controls are processed identically, except that primary antibody is replaced with dilution buffer.
As described by Y. Fu et al., SNpcis delineated using the 4× objective of Olympus BX61 Microscope (Olympus) equipped with Stereo Investigator Software Version 7.2 (MicroBrightField). Stereological quantification is performed using optical fractionator probe with slight modifications(P. A. Alladi et al.). Briefly, every sixth midbrain section containing SNpc is chosen and TH^+ cells are counted under 100× objective, with a regular grid interval of 22500 μm^2 (x=150 μm, y=150 μm) and counting frame with an area of 3600 μm^2 (x=60 μm, y=60 μm) (FIG. 10B). Mounted thickness is determined at every fifth site, averaging to 25 μm. Guard zone 4 μm is applied on either side, thus providing 17 μm of z-dimension within optical dissector. The quantification is performed starting with first anterior appearance of TH^+ neurons in SNpc to caudal most part. The SNpc volume is determined by planimetry (FIG. 10C) and total numbers of neurons according to mean measured thickness are noted.
High magnification images of TH stained nigral DAergic neurons, captured for offline assessment of Tyrosine Hydroxylase (TH) enzyme expression levels=used. Expression intensity is measured using a Windows based image analysis system (Q Win V3, Leica Systems). Cumulative mean is derived from the values obtained from sampling, approximately 200 DAergic neurons per animal. Intensity output is measured on a grey scale of 0-255, where 0 equals intense staining and 255 means absence of staining.
The mice are distributed into three groups' viz., vehicle, MPTP and MPTP+XCT 790 injected respectively. The vehicle group receives intraperitoneal injections of dimethyl sulfoxide (DMSO) injections i.e. the solvent. The MPTP group receives 23.4 mg/kg MPTP.HCl in 10 ml/kg body wt. of saline is administered intraperitoneally for 4 times at 2 h interval. The MPTP+XCT 790 group mice are injected with 5 mg/kg body wt, of XCT 790 dissolved in DMSO, alongside the first MPTP injection. […]

[2] = tested on: MAP1LC3B; experiment: MAP1LC3B conversion assay in HeLa cells; format: cell-based, human
Description: Total cell lysates are electrophoresed on different 1 percentages of SDS-PAGE based on the desired protein size and transferred onto PVDF membrane at constant current of 2 Ampere for 30 minutes (Transblot turbo, Bio-Rad Inc, USA). Transfer is confirmed by Ponceau S staining of blot and the blots scanned are used as loading controls. Blots are incubated overnight with 5% skim milk in primary antibody (Anti-GFP, Roche #11814460001, Anti-MAP1LC3B, CST #L7543). Secondary antibody used at 1:10.000 is goat anti-mouse (Bio-7 Rad #172-1011) or goat anti-rabbit antibody (Bio-Rad #172-1019) conjugated to HRP. Blots are developed by using ECL substrate (Thermo Scientific #34087 or Bio-Rad #170-5061) and images captured using auto capture program in Syngene G-Box, UK. image J (NIH) are used for quantitation of band intensities.
For mammalian cells, following appropriate treatments, cells are washed with ice cold PBS. Cells are then lysed in 100 μl of sample buffer (10% w/v SDS, 10 mM DTT, 20% v/v glycerol, 0.2 Tris-HCL pH 6.8, 0.05% w/v bromophenol blue) and then collected using a rubber cell scraper. The lysates are boiled at 99° C. for 15 minutes and stored at −20° C.

[3] = nutrient-rich and starvation conditions

COc1cc(C=C(C#N)C(=O)Nc2nnc(C(F)(F)F)s2)ccc1OCc1ccc(C(F)(F)F)cc1C(F)(F)F [XCT 790, 3-[4-(2,4-Bis-trifluoromethylbenzyloxy)-3-methoxyphenyl]-2-cyano-N-(5-trifluoromethyl-1,3,4-thiadiazol-2-yl)acrylamide]
prevention of SNpc volume shrinkage ([1]; 5 mg/kg, MPTP+Co vs MPTP): approximately 85% | alleviation of MPTP induced dopaminergic neuronal loss ([1]; 5 mg/kg, co-administration with MPTP): 80%

O=C1Nc2cc(Br)ccc2/C1=C1/Nc2ccccc2/C1=N\O [6-Bio, (2′Z,3′E)-6-Bromoindirubin-3′-oxime]
decrease in SNpc volume upon MPTP administration ([1]; 5 mg/kg i.p., Co and Pro groups): not seen

Cc1ccc(S(=O)(=O)/C=C/C#N)cc1 [Bay11, 3-[(4-methylphenyl)sulfonyl]-(2E)-propenenitrile]
MAP1LC3B-II/MAP1LC3B-I and MAP1LC3B-II/TUBB ratios, prolonged treatment ([2]; 12 hours): significant reduction | MAP1LC3B-II/TUBB ratio with BFA (autophagosome synthesis) ([2]; in the presence of BFA): reduces MAP1LC3B12 II/TUBB ratio | MAP1LC3B-II/MAP1LC3B-I ratio [2, 3]: decreases MAP1LC3B-II/MAP1LC3B-I ratio | MAP1LC3B-II/TUBB ratio [2, 3]: no significant changes
